From ChEMBL document CHEMBL1124836 (J Med Chem, 1990) come the findings set out here.

One assay deals with Adenosine A2 receptor (Rattus norvegicus, UniProt P29276+P30543).
The nature of assay [1]: Ratio of A1-receptor binding to that of A2-receptor binding.
The next assay has as its target T1, Adenosine receptor A1 (Rattus norvegicus, UniProt P25099).
T1 sequence (P25099 whole entry): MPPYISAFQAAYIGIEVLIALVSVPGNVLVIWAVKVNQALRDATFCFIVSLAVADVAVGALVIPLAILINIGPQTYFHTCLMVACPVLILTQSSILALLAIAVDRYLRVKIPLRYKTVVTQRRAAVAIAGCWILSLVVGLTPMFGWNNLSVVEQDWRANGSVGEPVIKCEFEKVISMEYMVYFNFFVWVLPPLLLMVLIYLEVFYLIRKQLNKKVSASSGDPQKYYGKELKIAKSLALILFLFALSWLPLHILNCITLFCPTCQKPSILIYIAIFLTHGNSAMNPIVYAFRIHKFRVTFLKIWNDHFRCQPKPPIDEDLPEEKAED
Description: Adenosine A1 receptor binding was measured in adenosine deaminase (ADA) pretreated rat cortical membranes using [3H]cyclohexyladenosine in the presence of 2-chloroadenosine.

The species named for assay [2] is Rattus norvegicus. Description: Effective concentration required for 25% decrease in heart rate in perfused working heart model was determined.
The species entered for assay [3] is Rattus norvegicus. Description: Effective concentration required for 25% increase in coronary flow(CF) in perfused working heart model was determined. The class given is functional.

Molecules are shown by their SMILES.

For the compound `CNC(=O)[C@H]1O[C@@H](n2cnc3c(N)nc(NCCc4ccccc4)nc32)[C@H](O)[C@@H]1O`, the results for the inhibitory constant (Ki) at Adenosine A2 receptor and on Adenosine receptor A1 were 77 nM and 5350 nM, respectively. For the same compound, the Ratio in assay [1] came out at 69.
As for `CCNC(=O)[C@H]1O[C@@H](n2cnc3c(N)ncnc32)[C@H](O)[C@@H]1O` [NECA], the concentration for an effect of 25% (EC25) in the assay filed under Rattus norvegicus [2] was 60 nM; in the assay listed under Rattus norvegicus [3], 5 nM.
Consider `CCNC(=O)[C@H]1OC(n2cnc3c(N)nc(NCCc4ccc(Cl)cc4)nc32)[C@H](O)[C@@H]1O` (stereo partly specified), for which the Ki is 7.5 nM at Adenosine A2 receptor and 1510 nM at Adenosine receptor A1. For the same compound, the Ratio in assay [1] is 201.
Take `CCNC(=O)[C@H]1O[C@@H](n2cnc3c(N)nc(NCCc4ccc(CC(=O)O)cc4)nc32)[C@H](O)[C@@H]1O`: the Ki at Adenosine A2 receptor is 45 nM; on Adenosine receptor A1, 4880 nM. For the same compound, the Ratio in assay [1] is 109.
With `CCNC(=O)[C@H]1O[C@@H](n2cnc3c(N)nc(N(C)CCc4ccccc4)nc32)[C@H](O)[C@@H]1O`, the Ki at Adenosine A2 receptor was determined as 71 nM; at Adenosine receptor A1 it was 12100 nM. Moreover, the Ratio in assay [1] came to 170.
Regarding `CCNC(=O)[C@H]1O[C@@H](n2cnc3c(N)nc(NCCc4ccc(CCC(=O)OC)cc4)nc32)[C@H](O)[C@@H]1O`, the Ki is 9 nM at Adenosine A2 receptor and 1260 nM on Adenosine receptor A1. Further, the Ratio in assay [1] turned out to be 140.
Regarding `CNC(=O)[C@H]1O[C@@H](n2cnc3c(N)ncnc32)[C@H](O)[C@@H]1O`, the Ki at Adenosine receptor A1 amounted to 101 nM.
Consider `Nc1nc(NCCc2ccccc2)nc2c1ncn2[C@@H]1O[C@H](C(=O)NC2CC2)[C@@H](O)[C@H]1O`, for which the Ki at Adenosine A2 receptor came to 14 nM; at Adenosine receptor A1 it was 502 nM. The Ratio in assay [1] is 36.
Consider `CC(=O)O[C@]1(C(C)=O)CC[C@H]2[C@@H]3C=C(Cl)C4=CC(=O)[C@@H]5C[C@@H]5[C@]4(C)[C@H]3CC[C@@]21C` [CYPROTERONE ACETATE], for which the Ki on Adenosine A2 receptor came to 636 nM; on Adenosine receptor A1, 1.3 nM. Further, in assay [1], the Ratio is 0.002.
For `CCNC(=O)[C@H]1O[C@@H](n2cnc3c(N)nc(NCCc4ccc(F)cc4)nc32)[C@H](O)[C@@H]1O`, the Ki at Adenosine A2 receptor worked out at 7.7 nM; on Adenosine receptor A1, 1180 nM. In assay [1], the Ratio was found to be 154.
`Nc1nc(Nc2ccccc2)nc2c1ncn2[C@@H]1O[C@H](CO)[C@@H](O)[C@H]1O` yielded a Ki on Adenosine A2 receptor of 71 nM. Also, the EC25 in the assay listed under Rattus norvegicus [2] is greater than 3000 nM; in the assay filed under Rattus norvegicus [3], 110 nM.
For `CCNC(=O)[C@H]1O[C@@H](n2cnc3c(N)nc(NCCc4ccc(OCC(=O)O)cc4)nc32)[C@H](O)[C@@H]1O`, the inhibition constant (Ki) amounted to 42 nM on Adenosine A2 receptor and 4250 nM at Adenosine receptor A1. Further, the Ratio in assay [1] came to 101.
Regarding `CCNC(=O)[C@H]1O[C@@H](n2cnc3c(N)nc(NCc4ccccc4)nc32)[C@H](O)[C@@H]1O`, the values for the Ki on Adenosine A2 receptor and on Adenosine receptor A1 were 1130 nM and 8600 nM, respectively. For the same compound, the Ratio in assay [1] turned out to be 7.6.
As for `CCNC(=O)[C@H]1O[C@@H](n2cnc3c(N)nc(NCCc4ccc(CCC(=O)O)cc4)nc32)[C@H](O)[C@@H]1O` [CGS-21680], the EC25 in the assay filed under Rattus norvegicus [2] was greater than 3000 nM; in the assay listed under Rattus norvegicus [3], 2 nM.
For `CCNC(=O)[C@H]1O[C@@H](n2cnc3c(N)nc(NCCc4ccccc4)nc32)[C@H](O)[C@@H]1O`, the Ki at Adenosine receptor A1 was 473 nM. Moreover, the EC25 in the assay filed under Rattus norvegicus [2] was greater than 3000 nM; in the assay filed under Rattus norvegicus [3], 3 nM.
